Measured values taken from patent EP4775219A1, “USE OF VIRUS 3C PROTEASE IN PREVENTION OR TREATMENT OF TUMOR” (Academy of Military Medical Sciences, priority 2023, dated 2025).

Legend:
[1] = biological target: 3C protein in A172 cells (Enterovirus A71, UniProt B9VUU3); experiment: AG7088 blocking the inhibition of cell viability by EV-3C-mRNA; assay type: cell-based, EV71 or Coxsackievirus A14; settings: inhibition of the decrease in cell viability caused by 3C-mRNA transfection
Procedure: (§1) Rupintrivir (AG7088) is an effective, selective and irreversible 3C protease inhibitor. U87 MG cells and A172 cells were seeded in white-walled clear-bottom 96-well plates at a density of 1.0×10^4 per well, and cultured at 37°C with 5% CO2 for 24 hours. Subsequently, EV-3C-mRNA was diluted with Opti-MEM to final concentrations of 998.4 ng/ml, 499.2 ng/ml, 249.6 ng/ml, 124.8 ng/ml, 62.4 ng/ml, 31.2 ng/ml, and 15.6 ng/ml, and transfected into cells with Lipo2000 liposomes. Compound AG7088 was serially diluted with 2% cell maintenance medium and then added to the 96-well plates to final concentrations of 10µM, 1µM and 0µM, respectively. After 48h, the supernatant was discarded, and the diluted Cell-Titer Glo® Luminescent Cell Viability assay solution was added. The mixture was shaken for 5min in the dark to lyse the cells, followed by standing for 3min. Finally, the luminescence value of each well was measured using a microplate reader. Cell viability (%) = average value of experimental group/average value of cell control group × 100 [formula]
(§2) Data analysis: The inhibition rate-concentration curve was fitted to a sigmoidal curve using Origin9.0 software to calculate the half-maximal effective concentration (EC50) of AG7088 against 3C-mRNA. The half-cytotoxic concentration (CC50) of the compound was calculated using the same method.

[2] = in vitro; assay type: cell-based; settings: human
Procedure: as §2

[3] = in vitro; assay type: cell-based; settings: human; remark: listed apart in the source
Procedure: as §2

[4] = biological target: 3C protein in U87 MG cells (Enterovirus A71, UniProt B9VUU3); assay type: cell-based, EV71 or Coxsackievirus A14
3C protein in U87 MG cells, sequence (B9VUU3 1549-1731, change not shown): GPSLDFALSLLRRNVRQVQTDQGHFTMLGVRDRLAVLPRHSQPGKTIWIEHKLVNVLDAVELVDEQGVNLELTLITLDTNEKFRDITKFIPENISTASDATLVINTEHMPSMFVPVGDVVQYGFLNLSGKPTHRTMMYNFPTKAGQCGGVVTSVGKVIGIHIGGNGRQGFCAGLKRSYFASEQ
Procedure: as §1, §2

3C protein in A172 cells, sequence (B9VUU3 1549-1731, change not shown): as above

For `CCOC(=O)/C=C/[C@H](C[C@@H]1CCNC1=O)NC(=O)[C@@H](CC(=O)[C@@H](NC(=O)c1cc(C)on1)C(C)C)Cc1ccc(F)cc1` [AG7088, Rupintrivir], the IC50 [1] was 439 ± 30 nM, the CC50 [2] was > 100000 nM and the CC50 [3] was > 100000 nM. For the same compound, the “Viability of U87 cells (%)” value ([4]; AG7088 1µM + EV-3C-mRNA 31.2 ng/ml, 48h) was 95.64±2% and the IC50 ([4]; inhibition of the decrease in cell viability caused by 3C-mRNA transfection, U87 MG cells) was 1150 ± 190 nM.
